What was measured:
[1] = tested on: acute vomiting induced by cisplatin in ferrets; experiment: Acute vomiting induced by cisplatin in ferrets, compound orally given; assay type: in vivo; settings: cisplatin 10 mg/kg i.p.; for Duration of retching (in hour; mean ± SD) / Duration of vomiting (in hour;, mean ± SD) / Frequency of retching (mean ± SD) / Frequency of vomiting (mean ± SD) / Number of ferrets with retching /number of tested ferrets / Number of ferrets with vomiting /number of tested ferrets / Time period until first retching (in hour; ± mean SD) / Time period until first vomiting (in hour;, mean ± SD): 5 hours
Method: 5 to 6 male ferrets (1.2 to 2.3 kg) per one group were used. Cisplatin was intraperitoneally given at 10 mg/10 ml/kg. One hour prior to cisplatin administration, a small volume of a feed was given to the animals. 30 minutes prior to cisplatin administration, predetermined doses of the compound No. 3 were orally given. Similarly, 0.5 % methyl cellulose (MC) solution was orally given to a control animal group under no fasting. The frequency of vomiting was counted in number, up to 5 hours after cisplatin administration.
(§1) The compound No. 3 was suspended in 0.5 % methyl cellulose solution to predetermined concentrations, for oral dosing at a ratio of 1 ml per 1 kg body weight. Additionally, 0.5% methyl cellulose solution was orally given at a ratio of 1 ml per 1 kg body weight. The data relating to the frequency of vomiting, the time period (latency) until first vomiting and the time period from the occurrence of vomiting to the termination thereof were statistically analyzed by the Dunnett test, with reference to the difference from the control group.
(§2) The acute retching suppression ratio and acute vomiting suppression ratio were calculated by the following formula. [Frequency of retching or vomiting in control] - [Frequency of retching or vomiting in animals dosed with the compound No. 3] / [Frequency of retching or vomiting in control] x 100 (%) [formula]

[2] = tested on: cisplatin-induced acute vomiting in dogs; experiment: Cisplatin-induced acute vomiting in dogs, compound orally given; assay type: in vivo, beagle dogs; settings: cisplatin 3 mg/kg i.v.; for Duration of vomiting (in hour;, mean ± SD) / Frequency of vomiting (mean ± SD) / Number of dogs with vomiting/number of tested dogs / Time period until first vomiting (in hour;, mean ± SD): 5 hours
Method: 3 or 4 beagle dogs (7.9 to 13.3 kg), male or female, were used per one group. Cisplatin was intravenously administered at 3 mg/3 ml/kg. One hour before cisplatin dosing, a small volume of a feed was given to the animals. 30 minutes before cisplatin administration, predetermined doses of the compound No. 3 were orally given. Similarly, 0.5 % methyl cellulose solution was orally given to the control animals under no fasting. The frequency of vomiting was counted in number, up to 5 hours after cisplatin dosing.
as §1, with “the 0.5 %” for “0.5%”
as §2

## Cc1ccc(-c2c3n(c(=O)c4ncccc24)CC[C@@H](C)CN(Cc2cc(C(F)(F)F)cc(C(F)(F)F)c2)C3=O)cc1 [Cpd. No.3, (9R)-7-[3,5-bis(trifluoromethyl)benzyl]-6,7,8,9,10,11-hexahydro-9-methyl-5-(4-methylphenyl)-6,13-dioxo-13H-[1,4]diazocino[2,1-g][1,7]naphthylidine]
[1]; 1 mg/kg p.o.
  Suppression ratio of acute retching: 38 % NS
  Suppression ratio of acute vomiting: 22 % NS
  Duration of retching (in hour; mean ± SD): 1.7 ± 0.4 h
  Duration of vomiting (in hour;, mean ± SD): 1.4 ± 0.4 h
  Frequency of retching (mean ± SD): 79.0 ± 15.1
  Frequency of vomiting (mean ± SD): 8.3 ± 2.2
  Number of ferrets with retching /number of tested ferrets: 6/6
  Number of ferrets with vomiting /number of tested ferrets: 6/6
  Time period until first retching (in hour; ± mean SD): 1.5 ± 0.1 h
  Time period until first vomiting (in hour;, mean ± SD): 1.6 ± 0.1 h
[1]; 3 mg/kg p.o.
  Effect on vomiting (in words): significantly suppressed
  Suppression ratio of acute retching: 53 % b
  Suppression ratio of acute vomiting: 27 % NS
  Duration of retching (in hour; mean ± SD): 1.7 ± 0.3 h
  Duration of vomiting (in hour;, mean ± SD): 1.6 ± 0.4 h
  Frequency of retching (mean ± SD): 59.3 ± 12.0 b
  Frequency of vomiting (mean ± SD): 7.8 ± 1.3
  Number of ferrets with retching /number of tested ferrets: 6/6
  Number of ferrets with vomiting /number of tested ferrets: 6/6
  Time period until first retching (in hour; ± mean SD): 1.6 ± 0.1 h
  Time period until first vomiting (in hour;, mean ± SD): 1.6 ± 0.1 h
[1]; 10 mg/kg p.o.
  Effect on vomiting (in words): prominently suppressed
  Suppression ratio of acute retching: 88 % b
  Suppression ratio of acute vomiting: 70 % b
  Duration of retching (in hour; mean ± SD): 2.4 ± 0.5 h
  Duration of vomiting (in hour;, mean ± SD): 1.0 ± 0.4 h
  Frequency of retching (mean ± SD): 14.8 ± 3.7 b
  Frequency of vomiting (mean ± SD): 3.2 ± 1.0 b
  Number of ferrets with retching /number of tested ferrets: 5/6
  Number of ferrets with vomiting /number of tested ferrets: 5/6
  Time period until first retching (in hour; ± mean SD): 2.1 ± 0.6 h
  Time period until first vomiting (in hour;, mean ± SD): 2.2 ± 0.6 h
[2]; 1 mg/kg p.o.
  Suppression ratio of acute vomiting: 18 % NS
  Duration of vomiting (in hour;, mean ± SD): 1.5 ± 0.2 h
  Frequency of vomiting (mean ± SD): 11.3 ± 0.5
  Number of dogs with vomiting/number of tested dogs: 4/4
  Time period until first vomiting (in hour;, mean ± SD): 1.6 ± 0.2 h
[2]; 3 mg/kg or higher p.o.
  Effect on cisplatin-induced vomiting (in words): significantly suppressed
[2]; 3 mg/kg p.o.
  Suppression ratio of acute vomiting: 54 % NS
  Duration of vomiting (in hour;, mean ± SD): 1.1 ± 0.2 h
  Frequency of vomiting (mean ± SD): 6.3 ± 0.8 a
  Number of dogs with vomiting/number of tested dogs: 4/4
  Time period until first vomiting (in hour;, mean ± SD): 1.9 ± 0.1 h
[2]; 10 mg/kg p.o.
  Effect on cisplatin-induced vomiting (in words): almost completely suppressed
  Effect on the latency (in words): prolonged
  Suppression ratio of acute vomiting: 93 % b
  Duration of vomiting (in hour;, mean ± SD): 0.2 ± 0.2 a hour
  Frequency of vomiting (mean ± SD): 1.0 ± 0.7 a
  Number of dogs with vomiting/number of tested dogs: 2/4
  Time period until first vomiting (in hour;, mean ± SD): 3.6 ± 0.8 a hour
